In one assay the target is T1, Aurora B (Homo sapiens, UniProt Q96GD4).
T1 construct: cell lysates from Jurkat cells (ATCC TIB-152) used; endogenous in cells; host or cells: Jurkat cells (ATCC TIB-152), treated with pervanadate
As to the kind of experiment: Kinobeads assay, Aurora B. Format: binding. The conditions noted are these: for IC50: lysate of pervanadate-treated Jurkat cells, read-out: Inhibition values (IC50) Aur B. On the procedure:
(§1) The compounds of the present invention as described in the previous examples were tested in a Kinobeads™ assay as described for ZAP-70 (WO-A 2007/137867). Briefly, test compounds (at various concentrations) and the affinity matrix with the immobilized aminopyrido-pyrimidine ligand 24 were added to cell lysate aliquots and allowed to bind to the proteins in the lysate sample. After the incubation time the beads with captured proteins were separated from the lysate. Bound proteins were then eluted and the presence of JAK2 and JAK3 was detected and quantified using specific antibodies in a dot blot procedure and the Odyssey infrared detection system. Dose response curves for individual kinases were generated and IC50 values calculated. Kinobeads™ assays for ZAP-70 (WO-A 2007/137867) and for kinase selectivity profiling (WO-A 2006/134056) have been previously described.
(§2) The affinity matrix was washed two times with 15 mL of 1×DP buffer containing 0.2% NP40 (IGEPAL® CA-630, Sigma, #I3021) and then resuspended in 1×DP buffer containing 0.2% NP40 (3% beads slurry).
(§3) 5×DP buffer 250 mM Tris-HCl pH 7.4, 25% Glycerol, 7.5 mM MgCl2, 750 mM NaCl, 5 mM Na3VO4; filter the 5×DP buffer through a 0.22 μm filter and store in aliquots at −80° C. The 5×DP buffer is diluted with H2O to 1×DP buffer containing 1 mM DTT and 25 mM NaF.
(§4) Stock solutions of test compounds were prepared in DMSO. In a 96 well plate 30 μL solution of diluted test compounds at 5 mM in DMSO were prepared. Starting with this solution a 1:3 dilution series (9 steps) was prepared. For control experiments (no test compound) a buffer containing 2% DMSO was used.
(§5) Cell lysate (approximately 50 mg protein per plate) was thawed in a water bath at room temperature and then stored on ice. To the thawed cell lysate 1×DP 0.8% NP40 buffer containing protease inhibitors (1 tablet for 25 mL buffer; EDTA-free protease inhibitor cocktail; Roche Diagnostics 1873580) was added in order to reach a final protein concentration of 10 mg/mL total protein. The diluted cell lysate was stored on ice. Mixed Molt4/Ramos lysate was prepared by combining one volume of Molt4 lysate and two volumes of Ramos lysate (ratio 1:2).
(§6) To a 96 well filter plate (Multiscreen HTS, BV Filter Plates, Millipore #MSBVN1250) were added per well: 100 μL affinity matrix (3% beads slurry), 3 μL of compound solution, and 50 μL of diluted lysate. Plates were sealed and incubated for 3 hours in a cold room on a plate shaker (Heidolph tiramax 1000) at 750 rpm. Afterwards the plate was washed 3 times with 230 μL washing buffer (1×DP 0.4% NP40). The filter plate was placed on top of a collection 1 plate (Greiner bio-one, PP-microplate 96 well V-shape, 65120) and the beads were then eluted with 20 μL of sample buffer (100 mM Tris, pH 7.4, 4% SDS, 0.00025% bromophenol blue, 20% glycerol, 50 mM DTT). The eluate was frozen quickly at −80° C. and stored at −20° C.
(§7) The kinases in the eluates were detected and quantified by spotting on nitrocellulose membranes and using a first antibody directed against the kinase of interest and a fluorescently labelled secondary antibody (anti-rabbit IRDye™ antibody 800 (Licor, #926-32211). The Odyssey Infrared Imaging system from LI-COR Biosciences (Lincoln, Nebr., USA) was operated according to instructions provided by the manufacturer (Schutz-Geschwendener et al, 2004. Quantitative, two-color Western blot detection with infrared fluorescence. Published May 2004 by LI-COR Biosciences, www.licor.com).
(§8) After spotting of the eluates the nitrocellulose membrane (BioTrace NT; PALL, #BTNT30R) was first blocked by incubation with Odyssey blocking buffer (LICOR, 927-40000) for 1 hour at room temperature. Blocked membranes were then incubated for 16 hours at the temperature shown in Table 5 with the first antibody diluted in Odyssey blocking buffer (LICOR #927-40000). Afterwards the membrane was washed twice for 10 minutes with PBS buffer containing 0.2% Tween 20 at room temperature. […]

The next assay has as its target T2, Aurora A (Homo sapiens, UniProt O14965).
T2 construct: cell lysates from Jurkat cells (ATCC TIB-152) used; endogenous in cells; host or cells: Jurkat cells (ATCC TIB-152), treated with pervanadate
T2 sequence (O14965 1-403): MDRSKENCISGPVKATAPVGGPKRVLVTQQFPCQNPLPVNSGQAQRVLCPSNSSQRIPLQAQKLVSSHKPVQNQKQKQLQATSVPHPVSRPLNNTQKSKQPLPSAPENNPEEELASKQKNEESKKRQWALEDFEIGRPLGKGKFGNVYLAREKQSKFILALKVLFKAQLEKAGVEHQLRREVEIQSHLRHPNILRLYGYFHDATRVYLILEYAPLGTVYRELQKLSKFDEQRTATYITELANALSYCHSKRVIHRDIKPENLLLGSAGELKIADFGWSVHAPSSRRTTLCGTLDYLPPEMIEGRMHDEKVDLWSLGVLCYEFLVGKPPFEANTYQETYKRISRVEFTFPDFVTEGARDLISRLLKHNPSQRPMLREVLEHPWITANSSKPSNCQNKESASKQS
As to the kind of experiment: Kinobeads assay, Aurora A. The format is binding. The conditions noted are these: for IC50: lysate of pervanadate-treated Jurkat cells, read-out: Inhibition values (IC50) Aur A. How it is done:
as §1, §2, §3, §4, §5, §6, §7, §8

T1 sequence (Q96GD4 whole entry): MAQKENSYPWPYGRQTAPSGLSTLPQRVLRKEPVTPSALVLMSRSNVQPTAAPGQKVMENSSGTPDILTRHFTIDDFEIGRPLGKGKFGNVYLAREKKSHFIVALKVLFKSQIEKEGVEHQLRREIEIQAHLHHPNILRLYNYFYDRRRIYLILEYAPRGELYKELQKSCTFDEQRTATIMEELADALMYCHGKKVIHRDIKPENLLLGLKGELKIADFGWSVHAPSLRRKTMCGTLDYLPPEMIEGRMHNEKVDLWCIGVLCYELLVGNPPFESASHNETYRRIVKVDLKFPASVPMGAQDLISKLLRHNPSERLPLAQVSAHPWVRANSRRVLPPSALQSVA

On to `OCCCn1cc(Nc2ncc3cnn(Cc4cccc(N5CCOCC5)c4)c3n2)cn1` [Example 18, 3-(4-((1-(3-Morpholinobenzyl)-1H-pyrazolo[3,4-d]pyrimidin-6-yl)amino)-1H-pyrazol-1-yl)propan-1-ol], for which, on Aurora B, the “JAK3/AurB Fold Selectivity” value is >50 Fold and the IC50 fell in the range of 0.1 to 1 µM. On Aurora A, the “JAK3/AurA Fold Selectivity” value is 10-50 Fold and the IC50 lay within 0.1 to 1 µM.

In the case of `CNC(=O)Cn1cc(Nc2ncc3cnn(Cc4cccc(N5CCOCC5)c4)c3n2)cn1` [Example 12, N-Methyl-2-(4-((1-(3-morpholinobenzyl)-1H-pyrazolo[3,4-d]pyrimidin-6-yl)amino)-1H-pyrazol-1-yl)acetamide], on Aurora B, the “JAK3/AurB Fold Selectivity” value is listed as 10-50 Fold and the concentration for half-maximal inhibition (IC50) was in the range of 0.1 to 1 µM. Also, on Aurora A, the “JAK3/AurA Fold Selectivity” value is reported as 3-10 Fold and the IC50 lay in the range of 0.1 to 1 µM.

For `OCCn1cc(Nc2ncc3cnn(Cc4cccc(N5CCOCC5)c4)c3n2)cn1` [Example 5, 2-(4-((1-(3-Morpholinobenzyl)-1H-pyrazolo[3,4-d]pyrimidin-6-yl)amino)-1H-pyrazol-1-yl)ethanol], on Aurora B, the “JAK3/AurB Fold Selectivity” value is >50 Fold and the IC50 lay within 0.1 to 1 µM. Further, on Aurora A, the “JAK3/AurA Fold Selectivity” value is given as 10-50 Fold and the IC50 fell in the range of 0.1 to 1 µM.

In the case of `Cn1cc(Nc2ncc3cnn(Cc4cccc(N5CCS(=O)(=O)CC5)c4)c3n2)cn1` [Example 25, 4-(3-((6-((1-Methyl-1H-pyrazol-4-yl)amino)-1H-pyrazolo[3,4-d]pyrimidin-1-yl)methyl)phenyl)thiomorpholine 1,1-dioxide], at Aurora B, the “JAK3/AurB Fold Selectivity” value is 10-50 Fold and the IC50 was 0.1 to 1 µM. On Aurora A, the “JAK3/AurA Fold Selectivity” value is given as 10-50 Fold and the IC50 was in the range of 0.1 to 1 µM.

As for `Cn1cc(-c2cccc(Cn3ncc4cnc(Nc5cnn(CCO)c5)nc43)c2F)cn1` [Example 124, 2-(4-((1-(2-fluoro-3-(1-methyl-1H-pyrazol-4-yl)benzyl)-1H-pyrazolo[3,4-d]pyrimidin-6-yl)amino)-1H-pyrazol-1-yl)ethanol], on Aurora B, the “JAK3/AurB Fold Selectivity” value is given as 10-50 Fold and the IC50 fell in the range of 0.1 to 1 µM. In addition, at Aurora A, the “JAK3/AurA Fold Selectivity” value is 10-50 Fold and the IC50 was in the range of 0.1 to 1 µM.

Consider `Cn1cc(Nc2ncc3cnn(Cc4cccc(N5CCNCC5=O)c4)c3n2)cn1` [Example 36, 1-(3-((6-((1-Methyl-1H-pyrazol-4-yl)amino)-1H-pyrazolo[3,4-d]pyrimidin-1-yl)methyl)phenyl)piperazin-2-one], for which, on Aurora B, the “JAK3/AurB Fold Selectivity” value was 10-50 Fold and the IC50 is 1 to 10 µM. Also, on Aurora A, the “JAK3/AurA Fold Selectivity” value is 10-50 Fold and the IC50 was 0.1 to 1 µM.

Consider `CNCCCn1cc(Nc2ncc3cnn(Cc4cc(F)cc(N5CCOCC5=O)c4)c3n2)cn1` [Example 99, 4-(3-fluoro-5-((6-((1-(3-(methylamino)propyl)-1H-pyrazol-4-yl)amino)-1H-pyrazolo[3,4-d]pyrimidin-1-yl)methyl)phenyl)morpholin-3-one], for which, at Aurora B, the “JAK3/AurB Fold Selectivity” value was 3-10 Fold and the half-maximal inhibitory concentration (IC50) is < 0.1 µM. Besides, on Aurora A, the “JAK3/AurA Fold Selectivity” value was 3-10 Fold and the 50% inhibitory concentration (IC50) is < 0.1 µM.

In the case of `Cn1cc(-c2cccc(Cn3ncc4cnc(Nc5cnn(CCO)c5)nc43)c2)cn1` [Example 122, 2-(4-((1-(3-(1-methyl-1H-pyrazol-4-yl)benzyl)-1H-pyrazolo[3,4-d]pyrimidin-6-yl)amino)-1H-pyrazol-1-yl)ethanol], on Aurora B, the “JAK3/AurB Fold Selectivity” value is >50 Fold and the IC50 is 0.1 to 1 µM. Besides, on Aurora A, the “JAK3/AurA Fold Selectivity” value is 10-50 Fold and the IC50 is 0.1 to 1 µM.

For the molecule `CN(C)CC(F)Cn1cc(Nc2ncc3cnn(Cc4cc(F)cc(N5CCOCC5=O)c4)c3n2)cn1` (centres unmarked) [Example 97, 4-(3-((6-((1-(3-(dimethylamino)-2-fluoropropyl)-1H-pyrazol-4-yl)amino)-1H-pyrazolo[3,4-d]pyrimidin-1-yl)methyl)-5-fluorophenyl)morpholin-3-one], on Aurora B, the “JAK3/AurB Fold Selectivity” value is recorded as >50 Fold and the IC50 was in the range of 1 to 10 µM. In addition, at Aurora A, the “JAK3/AurA Fold Selectivity” value was 10-50 Fold and the 50% inhibitory concentration (IC50) is 0.1 to 1 µM.

Regarding `CCOC(=O)C1CCCN(c2cccc(Cn3ncc4cnc(Nc5cnn(C)c5)nc43)c2)C1` (centres unmarked) [Example 13, Ethyl 1-(3-((6-((1-methyl-1H-pyrazol-4-yl)amino)-1H-pyrazolo[3,4-d]pyrimidin-1-yl)methyl)phenyl)piperidine-3-carboxylate], on Aurora B, the “JAK3/AurB Fold Selectivity” value was 10-50 Fold and the IC50 was ≥ 10 µM. Moreover, on Aurora A, the “JAK3/AurA Fold Selectivity” value is 3-10 Fold and the concentration for half-maximal inhibition (IC50) was 1 to 10 µM.

With `CC(CN(C)C)Cn1cc(Nc2ncc3cnn(Cc4cccc(N5CCOCC5)c4)c3n2)cn1` (centres unmarked) [Example 32, N-(1-(3-(Dimethylamino)-2-methylpropyl)-1H-pyrazol-4-yl)-1-(3-morpholinobenzyl)-1H-pyrazolo[3,4-d]pyrimidin-6-amine], at Aurora B, the “JAK3/AurB Fold Selectivity” value is >50 Fold and the IC50 lay within 1 to 10 µM. In addition, at Aurora A, the “JAK3/AurA Fold Selectivity” value is recorded as 10-50 Fold and the IC50 was 1 to 10 µM.

Regarding `OCCn1cc(Nc2ncc3cnn(Cc4cc(F)cc(N5CCNCC5)c4F)c3n2)cn1` [Example 96, 2-(4-((1-(2,5-difluoro-3-(piperazin-1-yl)benzyl)-1H-pyrazolo[3,4-d]pyrimidin-6-yl)amino)-1H-pyrazol-1-yl)ethanol], at Aurora B, the “JAK3/AurB Fold Selectivity” value is recorded as >50 Fold and the concentration for half-maximal inhibition (IC50) was ≥ 10 µM. Besides, on Aurora A, the “JAK3/AurA Fold Selectivity” value is listed as >50 Fold and the IC50 is ≥ 10 µM.

`Cn1cc(Nc2ncc3cnn(Cc4cccc(NC5COC5)c4)c3n2)cn1` [Example 114, N-(1-methyl-1H-pyrazol-4-yl)-1-(3-(oxetan-3-ylamino)benzyl)-1H-pyrazolo[3,4-d]pyrimidin-6-amine]: on Aurora B, the “JAK3/AurB Fold Selectivity” value is reported as 10-50 Fold and the concentration for half-maximal inhibition (IC50) lay in the range of 0.1 to 1 µM. On Aurora A, the “JAK3/AurA Fold Selectivity” value is on record as 3-10 Fold and the IC50 was < 0.1 µM.

In the case of `Cn1cc(Nc2ncc3cnn(Cc4cc(F)cc(N5CCNCC5)c4F)c3n2)cn1` [Example 95, 1-(2,5-difluoro-3-(piperazin-1-yl)benzyl)-N-(1-methyl-1H-pyrazol-4-yl)-1H-pyrazolo[3,4-d]pyrimidin-6-amine], on Aurora B, the “JAK3/AurB Fold Selectivity” value is listed as 10-50 Fold and the IC50 lay within 0.1 to 1 µM. In addition, at Aurora A, the “JAK3/AurA Fold Selectivity” value is given as 10-50 Fold and the IC50 fell in the range of 0.1 to 1 µM.

In general, IC50 refers to the concentration needed to halve the response being measured.
